Data: patent US20250353873A1, “COMPOUNDS AND METHODS FOR MODULATING APOE EXPRESSION” (Ionis Pharmaceuticals, Inc., priority 2024, published 2025)
pIC50: −log10 of the molar value. Strand notation (5' to 3'): a small letter for the sugar, then the base; units joined by * are phosphorothioate-linked, units joined directly phosphodiester-linked; [ ] holds rarer units or linkages, { } end groups; capitals alone tell only the bases. [ms] = mesyl phosphoramidate linkage; e = 2'-O-(2-methoxyethyl) (MOE); k = constrained ethyl (cEt); [5mC] = 5-methylcytosine; d = 2'-deoxy (DNA)

Key:
human APOE RNA [1] = assay: Activity in APOE C57BL/6NTac-Apoeem7250 knock-in mice, single ICV bolus, 20 weeks (Example 13); format: in vivo; conditions: single ICV bolus 300 μg, 20 weeks post treatment, normalized to mouse Ppia
Method in brief: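 Knock-in mice (n=4) given a single ICV bolus of 300 μg oligonucleotide, PBS as control. After 20 weeks, human APOE RNA in cortex and spinal cord measured by RT-qPCR, normalized to mouse Ppia, expressed as % of PBS-treated animals.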

human APOE RNA [2] = assay: Activity in APOE C57BL/6NTac-Apoeem7250 knock-in mice, single ICV bolus, 8 weeks (Example 11); format: in vivo; conditions: for APOE RNA (% control) Cortex / APOE RNA (% control) Spinal Cord: single ICV bolus 300 μg, 8 weeks post treatment, normalized to mouse Ppia
Method in brief: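 Human APOE knock-in C57BL/6NTac mice given one ICV bolus of 300 μg oligonucleotide; PBS-dosed group as control. At 8 weeks, cortex and spinal cord RNA measured by qRT-PCR (human probe RTS3073), normalized to mouse Ppia, expressed as % of PBS control.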

human APOE RNA [3] = assay: Activity in APOE C57BL/6NTac-Apoeem7250 knock-in mice, single ICV bolus, 4 weeks (Example 10); format: in vivo; conditions: single ICV bolus 300 μg, 4 weeks post treatment, normalized to mouse Ppia
Method in brief: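 Knock-in mice (2–4 per group) received one 300 μg ICV bolus of oligonucleotide or PBS. After four weeks, human APOE RNA in cortex and spinal cord measured by RT-qPCR (primer probe set RTS3073), normalized to mouse Ppia, expressed as % of PBS controls.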

human APOE RNA [4] = assay: Dose-dependent inhibition of human APOE RNA in differentiated SH-SY5Y cells, free uptake, 5 days (Example 5); format: cell-based
Experimental: Modified oligonucleotides selected from the examples above were tested at various doses in differentiated SH-SY5Y cells. The modified oligonucleotides were tested in a series of experiments that had the same culture conditions.
Differentiated SH-SY5Y cells plated at a density of 10,000 cells per well were treated by free uptake with various concentrations of modified oligonucleotide as specified in the tables below. […] APOE RNA levels were measured using the human primer probe set RTS3073 (described herein above). APOE RNA levels were normalized to human PPIA. Human PPIA was amplified using human primer probe set mk_cycloA_2nd (described herein above). Results are presented as percent APOE RNA, relative to the amount of APOE RNA in untreated control cells (% UTC). The half maximal inhibitory concentration (IC50) of each modified oligonucleotide was calculated in GraphPad Prism 10 (GraphPad Software, San Diego, CA) and is also presented in the tables below.

human APOE RNA [5] = assay: Dose-dependent reduction of human APOE RNA in HepG2 cells, electroporation, 20,000 cells per well, average of GAPDH- and PPIA-normalized results (Example 4, Table 12); format: cell-based; conditions: HepG2, 20,000 cells per well; for pIC50: approximately 24 hours
Experimental: HepG2 cells plated at a density of 20,000 cells per well were treated by electroporation with various concentrations of modified oligonucleotide as specified in the tables below. […] APOE RNA levels were measured using the human primer probe set RTS3073 (described herein above). APOE RNA levels were normalized to human GAPDH, and human PPIA. Human GAPDH was amplified using human primer probe set RTS104 (described herein above). Human PPIA was amplified using human primer probe set mk_cycloA_2nd (described herein above) The average of the GAPDH-normalized results and the PPIA-normalized results are presented in the table below as percent APOE RNA, relative to the amount of APOE RNA in untreated control cells (% UTC). The half maximal inhibitory concentration (IC50) of each modified oligonucleotide was calculated in GraphPad Prism 10 (GraphPad Software, San Diego, CA) and is also presented in the table below.

Substance | APOE RNA (% control) Cortex (human APOE RNA [1]) [% control] | APOE RNA (% control) Spinal Cord (human APOE RNA [1]) [% control] | APOE RNA (% control) Cortex (human APOE RNA [2]) [% control] | APOE RNA (% control) Spinal Cord (human APOE RNA [2]) [% control] | APOE RNA (% control) Cortex (human APOE RNA [3]) [% control] | APOE RNA (% control) Spinal Cord (human APOE RNA [3]) [% control] | APOE RNA (% UTC) (human APOE RNA [4]; 5 nM, 5 days (Table 14)) | APOE RNA (% UTC) (human APOE RNA [4]; 13 nM, 5 days (Table 14)) | APOE RNA (% UTC) (human APOE RNA [4]; 33 nM, 5 days (Table 14)) | APOE RNA (% UTC) (human APOE RNA [4]; 82 nM, 5 days (Table 14)) | APOE RNA (% UTC) (human APOE RNA [4]; 205 nM, 5 days (Table 14)) | APOE RNA (% UTC) (human APOE RNA [4]; 512 nM, 5 days (Table 14)) | APOE RNA (% UTC) (human APOE RNA [4]; 1,280 nM, 5 days (Table 14)) | APOE RNA (% UTC) (human APOE RNA [4]; 3,200 nM, 5 days (Table 14)) | APOE RNA (% UTC) (human APOE RNA [4]; 8,000 nM, 5 days (Table 14)) | APOE RNA (% UTC) (human APOE RNA [4]; 20,000 nM, 5 days (Table 14)) | pIC50 (human APOE RNA [4]; 5 days (Table 14)) | APOE RNA (% UTC) (human APOE RNA [5]; 5 nM) | APOE RNA (% UTC) (human APOE RNA [5]; 13 nM) | APOE RNA (% UTC) (human APOE RNA [5]; 33 nM) | further results
1757575 (eA*e[5mC]eTeT*kG*kG*dT*dG[ms]dA[ms]dA[ms]dT*d[5mC]*dT*dT*dT*dA[ms]kT*eT*eA*eA; antisense) [Compound 1757575] | 39 | 88 | 35 | 32 | 38 | 27 | 44 | 56 | 39 | 50 | 34 | 30 | 26 | 23 | 12 | 11 | 8.00 | 92 | 96 | 93 | APOE RNA (% UTC) (human APOE RNA [5]; 82 nM): 81 % UTC; APOE RNA (% UTC) (human APOE RNA [5]; 205 nM): 72 % UTC; APOE RNA (% UTC) (human APOE RNA [5]; 512 nM): 47 % UTC; APOE RNA (% UTC) (human APOE RNA [5]; 1,280 nM): 34 % UTC; APOE RNA (% UTC) (human APOE RNA [5]; 3,200 nM): 27 % UTC; APOE RNA (% UTC) (human APOE RNA [5]; 8,000 nM): 10 % UTC; APOE RNA (% UTC) (human APOE RNA [5]; 20,000 nM): 5 % UTC; pIC50 (human APOE RNA [5]): 6.24
^mCksTksTksGdzGdzTdzGdzAdzAdzTds^mCdsTdsTdsTdsAdsTdsTksAksAdzAk (antisense k[5mC]*kT*kT*dG[ms]dG[ms]dT[ms]dG[ms]dA[ms]dA[ms]dT*d[5mC]*dT*dT*dT*dA*dT*kT*kA*dA[ms]kA) [Compound No. 1785602] | 53 | 28 | 27 | 26 | 34 | 33 | 84 | 106 | 83 | 69 | 42 | 32 | 26 | 19 | 10 | 8 | 6.64 | 97 | 91 | 85 | reduction of human APOE RNA in the cortex (human APOE RNA [2]; APOE knock-in mouse model, 8 weeks post administration, assay of Example 11): 73%; APOE RNA (% UTC) (human APOE RNA [4]; 5 nM, 5 days (Table 13)): 74 % UTC; APOE RNA (% UTC) (human APOE RNA [4]; 13 nM, 5 days (Table 13)): 60 % UTC; APOE RNA (% UTC) (human APOE RNA [4]; 33 nM, 5 days (Table 13)): 64 % UTC; APOE RNA (% UTC) (human APOE RNA [4]; 82 nM, 5 days (Table 13)): 49 % UTC; APOE RNA (% UTC) (human APOE RNA [4]; 205 nM, 5 days (Table 13)): 40 % UTC; APOE RNA (% UTC) (human APOE RNA [4]; 512 nM, 5 days (Table 13)): 30 % UTC; APOE RNA (% UTC) (human APOE RNA [4]; 1,280 nM, 5 days (Table 13)): 36 % UTC; APOE RNA (% UTC) (human APOE RNA [4]; 3,200 nM, 5 days (Table 13)): 32 % UTC; APOE RNA (% UTC) (human APOE RNA [4]; 8,000 nM, 5 days (Table 13)): 15 % UTC; APOE RNA (% UTC) (human APOE RNA [4]; 20,000 nM, 5 days (Table 13)): 6 % UTC; pIC50 (human APOE RNA [4]; 5 days (Table 13)): 7.05; APOE RNA (% UTC) (human APOE RNA [5]; 82 nM): 70 % UTC; APOE RNA (% UTC) (human APOE RNA [5]; 205 nM): 56 % UTC; APOE RNA (% UTC) (human APOE RNA [5]; 512 nM): 36 % UTC; APOE RNA (% UTC) (human APOE RNA [5]; 1,280 nM): 33 % UTC; APOE RNA (% UTC) (human APOE RNA [5]; 3,200 nM): 8 % UTC; APOE RNA (% UTC) (human APOE RNA [5]; 8,000 nM): 21 % UTC; APOE RNA (% UTC) (human APOE RNA [5]; 20,000 nM): 3 % UTC; pIC50 (human APOE RNA [5]): 6.52
1785599: modified oligonucleotide complementary to human APOE RNA (k[5mC]*kT*kT*dG[ms]dG[ms]dT[ms]dG[ms]dA[ms]dA[ms]dT[ms]d[5mC]*dT*dT*dT*dA*dT*kT*kA*dA[ms]kA; antisense) [compound 1785599] | 55 | 20 | 26 | 34 | 32 | 38 | 77 | 61 | 72 | 60 | 46 | 20 | 21 | 17 | 12 | 6 | 7.00 | 100 | 106 | 93 | APOE RNA (% UTC) (human APOE RNA [5]; 82 nM): 81 % UTC; APOE RNA (% UTC) (human APOE RNA [5]; 205 nM): 71 % UTC; APOE RNA (% UTC) (human APOE RNA [5]; 512 nM): 43 % UTC; APOE RNA (% UTC) (human APOE RNA [5]; 1,280 nM): 32 % UTC; APOE RNA (% UTC) (human APOE RNA [5]; 3,200 nM): 18 % UTC; APOE RNA (% UTC) (human APOE RNA [5]; 8,000 nM): 10 % UTC; APOE RNA (% UTC) (human APOE RNA [5]; 20,000 nM): 15 % UTC; pIC50 (human APOE RNA [5]): 6.29
